Measurements taken from a melting point compilation (Tetko et al.; mined from patent text by program, amines drawn as free bases though some values may be those of a salt).

In the case of CCc1nc2c(N)nc3cc(OCc4ccccc4)ccc3c2n1CCCCNS(C)(=O)=O, the melting point is reported as 214 to 215 °C.
CC(C)c1ccc(N(Cc2ccc(N(C)C)cc2)C(=O)C2CCOc3c(C#N)cccc32)cc1 (centres undefined) showed a melting point of 179 °C.
For CNC(=O)N(O)C(C)C#Cc1cccc(Oc2ccccn2)c1 (centres undefined), the melting point was 147 to 149 °C.
CCOC(=O)c1cn(CC)c2nc3ccccc3n2c1=O gave a melting point of 252 to 253 °C.
For CN1CCC(c2c[nH]c3ccc(C4CN=CS4)cc23)CC1 (centres undefined), the melting point was 158 to 160 °C.
For Cc1ccc(Cl)cc1N1CN(Cc2ccccc2)CN(C)C1=S, the melting point was 148 to 149 °C.
CCn1ncc2c(O)c(CCc3ccccc3)c(C(=O)O)nc21 gave a melting point of 250 to 251 °C.
For COC(=O)CN(c1ccccc1)c1ccc(OC)cc1C(=O)OC, the melting point was 85 to 87 °C.
Cc1cccc(C(CNc2ncnc3c2ncn3C2OC(CO)C(O)C2O)c2ccccc2)c1 (centres undefined) showed a melting point of 92 to 105 °C.
For Cc1c(C(=O)Nc2ccc(N3CCC(N4CCOCC4)CC3)c(C#N)c2)cnn1-c1ccc(Cl)c(Cl)c1, the melting point was 242 °C.
NS(=O)(=O)c1cccc(-c2cccc(-c3nc(-c4ccc(C(F)(F)F)cc4)cc(C(F)F)n3)c2)c1 showed a melting point of 204 °C.
With CCOC(=O)N1CCN(c2ncnc3[nH]ncc23)CC1 the melting point was 245 to 247 °C.
CC(C)(C)c1cc(C(=O)c2cccs2)cc(CN2CCSCC2)c1O gave a melting point of 165 to 166 °C.
O=C(CN1C(=O)c2ccccc2S1(=O)=O)OCCO showed a melting point of 125 to 126 °C.
COc1ccc2c(c1)CCC1CCNC(=O)C(CCN3CCCCC3)=C21 (centres undefined) gave a melting point of 125 to 128 °C.
Molecule CCCN(CCC)C1Cc2cc3c(cc2C1)C(=O)N(c1ccc(C(N)=O)cc1)C3=O has a melting point of 275 to 276 °C.
Work on COc1cccc2c1N(S(=O)(=O)c1ccc(-c3ccc(F)cc3F)cc1)C(C(=O)NCc1ccc(C(=O)O)cc1)C2 (centres undefined) yielded a melting point of 218 °C.
With COc1ccc2sc(C(=O)NCCCCC(=O)O)c(OC(C)C)c2c1 the melting point was 135 to 137 °C.
For Cc1ccc(C=C2SC(=S)N(CC(=O)O)C2=O)cc1, the melting point was 245 to 250 °C.
With Cn1nc(S(C)(=O)=O)c(=O)c2ccc(Cl)cc21 the melting point was 270 to 272 °C.
Cc1c(NC(=O)c2ccc(OCC3CCOC3)cc2)ccc2cc(CNCC3CCOCC3)cnc12 (centres undefined) showed a melting point of 122 to 123 °C.
For CC1(C)CCC23CCC4(C)C(CCC5C6(C)CCC(O)C(C)(C)C6CCC54C)C2C1OC3 (centres undefined), the melting point was 268 to 269 °C.
COc1cc2c(cc1C(F)(F)F)N(C(=O)Nc1cc(F)cc(-c3cnccc3C)c1)CC2 gave a melting point of 191 to 195 °C.
For COc1ccc2c(C)c([N+](=O)[O-])ccc2c1C(F)(F)F, the melting point was 141 to 142 °C.
With CC(C)c1nc(-c2ccc(S(C)(=O)=O)cc2)c(-c2ccc(F)cc2)[nH]1 the melting point was 214 to 215 °C.
O=C(CO)N[C@H]1CC[C@H](CCN2CCC(c3cccc4c3CCO4)CC2)CC1 showed a melting point of 154 °C.
Work on CC(=O)NCC1CN(c2ccc(N3CCN(c4nnc(C(N)=O)s4)C(F)C3)cc2)C(=O)O1 (centres undefined) yielded a melting point of 230 to 232 °C.
Clc1ccc(-c2onc3c(CBr)cccc23)c(Cl)c1 showed a melting point of 108 to 110 °C.
In the case of Cc1cc(C#N)cc(C)c1Oc1nc(Nc2ccc(C#N)cc2)nc(N)c1Br, the melting point is reported as 271 °C.
CC(=O)OC1CSC(Oc2ccc(-c3ccco3)nc2)C(OC(C)=O)C1OC(C)=O (centres undefined) showed a melting point of 133 °C.
Molecule CC(C)(CO)NCC(O)Cn1ccnc1[N+](=O)[O-] (centres undefined) has a melting point of 114 to 116 °C.
O=C(O)Cc1cccc2c(-c3ccccc3)nccc12 showed a melting point of 192 °C.
With Cc1ccccc1-c1c(C#N)nn(-c2c(Cl)cc(C(F)(F)F)cc2Cl)c1N the melting point was 199 to 202 °C.
O=C(Nc1ccc(O)cc1)Nc1cc(Cl)ccc1C(=O)O gave a melting point of 212 to 214 °C.
For Cc1ccc(-c2cc(C(F)(F)F)nn2-c2ccc(C#N)cc2)cc1, the melting point was 125 to 126 °C.
In the case of COC(=O)c1sc2cc(O)ccc2c1C, the melting point is reported as 174 to 176 °C.
Molecule Cc1cc(O)n(C2CCCCC2)n1 has a melting point of 153 °C.
With O=Cc1ccc(C(=O)Nc2ccc(C(F)(F)F)cc2)cc1 the melting point was 173 °C.
For COC(=O)Nc1cn2nc(OCc3cc(OC)c(OC)c(OC)c3Br)ccc2n1, the melting point was 218 to 219 °C.
In the case of Cn1nc2c(N)nc3ccccc3c2c1CC(C)(C)NC(=O)c1ccccc1, the melting point is reported as 194 to 196 °C.
For CCCN1CCN(c2ncc3c(=O)c(C(=O)O)cn(CC)c3n2)CC1, the melting point was 149 °C.
Clc1ccc(-c2nnc(Br)cc2Br)cc1 gave a melting point of 160 to 162 °C.
In the case of Cc1nc2ccc3c(c2o1)C(CCNC(=O)c1ccccc1)CC3 (centres undefined), the melting point is reported as 73 to 76 °C.
Work on NC(=O)N(O)CC(=O)Nc1ccc(Oc2ccccc2)cc1 yielded a melting point of 190 °C.
Molecule Cc1c(O)c(=O)ccn1CCO has a melting point of 164 to 165 °C.
In the case of O=C(Nc1ccccc1)Nc1ccccn1, the melting point is reported as 186 to 188 °C.
For COc1cc(-n2nc(C#N)cc2-c2ccc(S(C)(=O)=O)cc2)ccc1Cl, the melting point was 203 to 205 °C.
CNC(=O)c1ccc(-c2nn(Cc3ccccc3)c3ccccc23)o1 gave a melting point of 182 to 183 °C.
In the case of CCOP(=O)(OCC)c1cccc(C)c1I, the melting point is reported as 56 to 58 °C.
Work on CC(C)CC(=O)N[C@H]1N=C(c2ccccc2)c2ccccc2N(C)C1=O yielded a melting point of 83 to 102 °C.
In the case of Cc1nc(NC(=O)CCc2ccccc2)sc1C(=O)NCc1ccccc1, the melting point is reported as 63 to 65 °C.
O=C1CC2CCc3cc(-n4ccc(=O)cc4)ccc3C2=NN1 (centres undefined) showed a melting point greater than 300 °C.
In the case of O=C(Cc1ccc(Cl)cc1)c1cccc(S(=O)(=O)N2CCCCCC2)c1, the melting point is reported as 135 to 136 °C.
For CCOc1ccc(OCc2ccc(OCc3nc(-c4ccccc4)oc3C)cc2)c(CCC(=O)O)c1, the melting point was 115 to 116 °C.
Molecule CC1(C)OC(=O)Nc2ccc(-c3ccccc3Cl)cc21 has a melting point of 181 to 182 °C.
For Cc1csc2c1c(N1CCN(C(=O)c3cccs3)CC1)c(C#N)c(=O)n2Cc1ccccc1, the melting point was 223 °C.
In the case of CN(C)c1ccc(NC(=O)N(C[C@H]2CCC[C@H](CN(C(=O)Nc3ccc(N(C)C)cc3)C3CCCCC3)C2)C2CCCCC2)cc1 (relative stereo), the melting point is reported as 145 to 146 °C.
Molecule CCOC(=O)C1CCC(=O)NC1=O (centres undefined) has a melting point of 69 to 74 °C.
With CC(C)(C)OC(=O)NNc1ccc(N)cn1 the melting point was 140 to 142 °C.
Molecule O=C(O)c1cc2cc(Cl)ccc2nc1N[C@@H](CO)Cc1ccccc1 has a melting point of 213 to 216 °C.
Work on O=C(O)CCn1c(=O)c(=O)[nH]c2cc([N+](=O)[O-])ccc21 yielded a melting point of 148 to 156 °C.
With O=C(OCCn1cnc2c(Cl)nc3ccccc3c21)c1ccccc1 the melting point was 186 °C.
O=C(c1ccccc1)c1ccc(O)c2ncccc12 showed a melting point of 115 to 116 °C.
For COCC(C)c1ccc(N2Cc3ccc(OC)cc3C2=O)cc1 (centres undefined), the melting point was 116 to 118 °C.
With COc1cncnc1N1CCN(CCCc2c[nH]c3ccc(CNS(C)(=O)=O)cc23)CC1C (centres undefined) the melting point was 210 to 214 °C.
Molecule N#Cc1ccccc1NCc1nc2ccc(F)cc2c(=O)n1-c1cccnc1Cl has a melting point of 183 to 187 °C.
CC(C)(C)C(=O)Nc1nc(O)c2cc(C#C[Si](C)(C)C)cnc2n1 gave a melting point greater than 250 °C.
CSC(=NC(=O)CS(C)(=O)=O)N(C)N=Cc1ccccc1 showed a melting point of 150 °C.
CCS(=O)(=O)CCC(=O)NNC(=O)N1Cc2ccccc2Oc2ccc(C#N)cc21 showed a melting point of 188 to 190 °C.
Work on NN=C(c1ccc(F)cc1)c1ccc(F)cc1 yielded a melting point of 78 °C.
COc1ccc(Cn2cnc3c(-c4ccco4)nc(S(C)(=O)=O)nc32)cc1 showed a melting point of 184 to 185 °C.
Molecule CSCC(C)(C)NC(=O)c1ccccc1Cl has a melting point of 83 to 86 °C.
CCN1CCC2(CC1)c1ccccc1Sc1c(O)cccc12 gave a melting point of 223 to 225 °C.
NS(=O)(=O)c1ccc(-c2cn(-c3nc(-c4ccc(F)cc4)cc(C(F)(F)F)n3)cn2)s1 gave a melting point of 244 °C.
Work on COc1ccc(CN2C(=O)C(NC(=O)Nc3ccccc3)C(=O)N(CCC(C)C)c3ccccc32)cc1 (centres undefined) yielded a melting point of 206 to 208 °C.
With N#Cc1cc([N+](=O)[O-])ccc1NCCCn1ccnc1 the melting point was 177 °C.
Molecule O=S(=O)(CC1CC=CCO1)c1ccc(Oc2ccc(OC(F)(F)F)cc2)cc1 (centres undefined) has a melting point of 62 to 72 °C.
For CC1(c2ccc(O)cc2)C(=O)Nc2cc(Cl)cc(Cl)c2C1=O (centres undefined), the melting point was 222 to 223 °C.
Work on Cc1cc(C)cc(NC(=O)Cc2ccc(OC3(C(=O)O)CCOCC3)cc2)c1 yielded a melting point of 186 to 188 °C.
Cc1ccc(Cl)cc1N1C(=O)CN(c2ccccc2)C1=S showed a melting point of 168 to 170 °C.
Work on Nc1nc(O)c2c(n1)NCC(CCc1c[nH]c(C(=O)O)c1)C2 (centres undefined) yielded a melting point greater than 260 °C.
For O=C(OCCC1CC1)c1ncn2c1[C@@H]1CCCN1C(=O)c1c(Cl)cccc1-2, the melting point was 163 to 164 °C.
With Cc1oc(C)c(C(=O)OC2CC(C)(C)N(C)C(C)(C)C2)c1C the melting point was 55 to 56 °C.
Work on CC(C)C[C@@H](C#N)NC(=O)[C@@H]1CCCC[C@@H]1NC(=O)c1cc2ccccc2n1CCO yielded a melting point of 59 to 63.5 °C.
COC(=O)C(C)(C)Cc1c(SC(C)(C)C)c2ccc(OC)cc2n1C showed a melting point of 97 to 98 °C.
For COC(=O)c1cc(S(=O)(=O)NC(=O)Nc2nc(C)cc(C)n2)c[nH]1, the melting point was 202 to 204 °C.
Work on COc1cc2c(c3c1OC(C)(C)C3)C(c1cccc(-c3ccco3)c1)=NC(C)(C)C2 yielded a melting point of 126 to 128 °C.
N#CCCC(C#N)(CCC#N)C(N)=O showed a melting point of 118 to 120 °C.
Work on Cc1nc(-c2cccc(CN(C(=O)Nc3ccc(-c4ccccc4S(=O)(=O)NC(C)(C)C)cc3)c3ccccc3)c2)no1 yielded a melting point of 191 to 192 °C.
Molecule COc1ccc(-c2ccc(C(=O)NN)cc2)cc1OC1CCCC1 has a melting point of 167 to 168 °C.
O=C(O)c1cc(-n2c(-c3ccccc3)cc3c2CCC3)ccc1O showed a melting point of 198 to 199 °C.
CCCCc1nc(SCC)c2ccccc2c1Cc1ccc(C(=O)OC)cc1 showed a melting point of 70 °C.
In the case of CCN(CC)CC1CCCCN1CC(=O)N1c2ccccc2C(=O)Nc2cccnc21 (centres undefined), the melting point is reported as 210 to 212 °C.
In the case of Cc1cnc(C2=NC(C)(C(C)C)C(=O)N2)c(C(=O)c2cccs2)c1 (centres undefined), the melting point is reported as 168 to 170 °C.
Work on CC(=O)NC1C(O[Si](C)(C)C(C)(C)C)C=C(C(=O)O)OC1C(OCC(=O)O)C1COC(C)(C)O1 (centres undefined) yielded a melting point of 130 °C.
For Cc1cc(C2=NOC(c3cc(Cl)cc(Cl)c3)(C(F)(F)F)C2)ccc1C(=O)NC1CSSC1 (centres undefined), the melting point was 73 °C.
CC(c1ccc(Cl)c(Cl)c1)n1[nH]c(N)cc1=O (centres undefined) gave a melting point of 127 to 129 °C.
Molecule C=CCOC(=O)c1ccc(O)c(C23CC4CC(CC(C4)C2)C3)c1F has a melting point of 219 to 222 °C.
With COc1cc(NCCN2CCC(Nc3nc4ccccc4n3Cc3ccc(F)cc3)CC2)ncn1 the melting point was 146 °C.
